The source of these data is ChEMBL document CHEMBL4825741, “Novel Histone Acetyltransferase (HAT) Inhibitors for Treating Diseases” (ACS Med Chem Lett, 2021).

This assay can be described thus: Inhibition of p300/CBP HAT (unknown origin) by scintillation proximity assay. The arrangement: species or system Homo sapiens. (In general: SPA uses beads or plates that emit light when radiolabelled molecules are held near them.)
On to `CC(CN[C@H](C(=O)Nc1ccc(OC2CCN(C(=O)C3CC3)CC2)cn1)c1ccccc1)c1ccc(C#N)cc1` (stereo partly specified), for which inhibition was half-maximal at 26.7 nM (IC50).
Under `CN1CCC(Oc2ccc(NC(=O)[C@H](NCCc3ccc(Cl)cc3)c3ccccc3)nc2)CC1` stands 26.6 nM.
Turning to `Cn1cc(COc2ccc(NC(=O)[C@@H](NCCc3ccc(Cl)cc3)c3ccccc3)nc2)cn1`, the IC50 (as a rule, the concentration that gives 50% inhibition) was found to be 16.8 nM.
The molecule `CC(=O)N1CC(Oc2ccc(NC(=O)[C@@H](NC[C@@H](C)c3ccc(C#N)cc3)c3ccccc3)nc2)C1` showed an IC50 of 14 nM.
Under `CC(=O)N1CC(Oc2ccc(NC(=O)[C@H](NCC(C)c3ccc(C#N)cc3)c3cccc(F)c3)nc2)C1` (stereo partly specified) stands 23.3 nM; under `CC(=O)N1CC(Oc2ccc(NC(=O)[C@H](NC[C@@H](C)c3ccc(C#N)cc3)c3ccccc3)nc2)C1`, 21.2 nM.
